These results are taken from patent US8344008B2 (Janssen Pharmaceutica NV, priority 2007, dated 2013).

Broadly, the pKi is the Ki on a negative log10 scale, so that one unit is a factor of ten.

pKi: −log10 of the molar value. Where a name gives a salt, the structure may show the parent alone.

The target in the assay is T1, recombinant human LTA4 hydrolase (rhLTA4H) (Homo sapiens, UniProt P09960).
T1 construct: made in house; host or cells: Spodoptera frugiperda (Sf-9) cells, baculovirus (pFastBac1)
T1 sequence (P09960 1-611): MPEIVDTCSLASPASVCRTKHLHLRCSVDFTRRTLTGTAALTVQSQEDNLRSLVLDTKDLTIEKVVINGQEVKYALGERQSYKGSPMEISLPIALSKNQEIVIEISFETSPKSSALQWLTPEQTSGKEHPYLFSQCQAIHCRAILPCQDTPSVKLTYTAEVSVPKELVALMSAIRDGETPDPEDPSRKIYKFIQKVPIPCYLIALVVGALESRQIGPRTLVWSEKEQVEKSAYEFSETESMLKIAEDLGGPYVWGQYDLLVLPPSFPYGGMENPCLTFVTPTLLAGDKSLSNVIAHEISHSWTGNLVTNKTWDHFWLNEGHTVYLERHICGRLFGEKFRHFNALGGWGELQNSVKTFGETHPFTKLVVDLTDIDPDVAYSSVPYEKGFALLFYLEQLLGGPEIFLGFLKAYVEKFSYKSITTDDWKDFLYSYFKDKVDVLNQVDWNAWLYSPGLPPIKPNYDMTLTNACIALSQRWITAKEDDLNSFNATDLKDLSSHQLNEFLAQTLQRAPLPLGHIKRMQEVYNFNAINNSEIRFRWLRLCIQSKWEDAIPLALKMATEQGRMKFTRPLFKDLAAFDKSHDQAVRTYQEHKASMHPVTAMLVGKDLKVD
The assay can be described thus: Recombinant Human LTA4 Hydrolase Assay for LTA4 Hydrolase Inhibitor Activity. In kind it is biochemical. The conditions noted are these: average of results obtained; LTB4 quantified by enzyme-linked immunoassay. A digest of the protocol:
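Baculovirus/Sf-9-expressed human LTA4 hydrolase (36 ng) preincubated with compound 10 min at rt in 0.1 M potassium phosphate pH 7.4, 5 mg/mL fatty-acid-free BSA. Reaction started with 9 ng LTA4 free acid, run 10 min at rt; LTB4 measured by enzyme immunoassay, IC50 from 4-parameter fit.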
With `O=S(=O)(c1ccco1)N1CC2CN(Cc3ccc(Oc4nc5ccccc5s4)cc3)CC2C1` (stereo not drawn) [Example 121, 2-{4-[5-(Furan-2-sulfonyl)-hexahydro-pyrrolo[3,4-c]pyrrol-2-ylmethyl]-phenoxy}-benzothiazole], the negative logarithm of the Ki (pKi) is 6.20.
The value for `NC(=O)N1CC2CCN(Cc3ccc(Oc4nc5ccccc5s4)cc3)CC2C1` (single isomer, unassigned; (-)) [Example 142B, (−)-5-[4-(Benzothiazol-2-yloxy)-benzyl]-octahydro-pyrrolo[3,4-c]pyridine-2-carboxylic acid amide] was 7.02.
`COC(=O)c1ccc(CN2CC3CN(Cc4ccc(Oc5nc6ccccc6s5)cc4)CC3C2)cc1` (stereo not drawn) [Example 153, 4-{5-[4-(Benzothiazol-2-yloxy)-benzyl]-hexahydro-pyrrolo[3,4-c]pyrrol-2-ylmethyl)-benzoic acid methyl ester]: the negative-log Ki (pKi) was 6.78.
The value for `Cc1ccc2sc(Oc3ccc(OCCN4C[C@@H]5C[C@H]4CN5S(C)(=O)=O)cc3)nc2c1` [Example 255, (S,S)-2-{4-[2-(5-Methanesulfonyl-2,5-diaza-bicyclo[2.2.1]hept-2-yl)-ethoxy]-phenoxy}-5-methyl-benzothiazole] was 6.56; that for `CC(=O)N1[C@@H]2CC[C@H]1C[C@@H](N(C)Cc1ccc(Oc3nc4ccccc4s3)cc1)C2` [Example 74, meso-endo-1-(3-{[4-(Benzothiazol-2-yloxy)-benzyl]-methyl-amino}-8-aza-bicyclo[3.2.1]oct-8-yl)-ethanone] was 6.62; that for `CC(=O)N1CC2CN(CCc3ccc(Oc4nc5ccc(C)cc5s4)cc3)CC2C1` (stereo not drawn) [Example 148, 1-(5-{2-[4-(6-Methyl-benzothiazol-2-yloxy)-phenyl]-ethyl}-hexahydro-pyrrolo[3,4-c]pyrrol-2-yl)-ethanone] was 6.64.
With `CC(=O)N1CC2CCC(C1)N2CCOc1ccc(Oc2nc3cccc(Cl)c3s2)cc1` [Example 283, meso-1-(8-{2-[4-(7-Chloro-benzothiazol-2-yloxy)-phenoxy]-ethyl}-3,8-diaza-bicyclo[3.2.1]oct-3-yl)-ethanone] the figure was 6.47; with `CS(=O)(=O)N[C@@H]1C[C@H]2CC[C@@H](C1)N2Cc1ccc(Oc2nc3c(F)cccc3s2)cc1` [Example 188, meso-exo-N-{8-[4-(4-Fluoro-benzothiazol-2-yloxy)-benzyl]-8-aza-bicyclo[3.2.1]oct-3-yl}-methanesulfonamide], 8.40.
For `CC(=O)N1CC2CCN(Cc3ccc(Oc4nc5ccccc5s4)cc3)CC2C1` (stereo not drawn) [Example 90, 1-{5-[4-(Benzothiazol-2-yloxy)-benzyl]-octahydro-pyrrolo[3,4-c]pyridin-2-yl}-ethanone], the negative logarithm of the Ki (pKi) was 7.68.
Regarding `Cc1ccc2nc(Oc3ccc(CCN[C@@H]4C[C@H]5CC[C@@H](C4)N5S(C)(=O)=O)cc3)sc2c1` [Example 269, meso-exo-(8-Methanesulfonyl-8-aza-bicyclo[3.2.1]oct-3-yl)-{2-[4-(6-methyl-benxothiazol-2-yloxy)-phenyl]-ethyl}-amine], the pKi was 6.20.
With `COCC(=O)N1C[C@@H]2C[C@H]1CN2Cc1ccc(Oc2nc3ccccc3s2)cc1` [Example 41, (S,S)-1-{5-[4-(Benzothiazol-2-yloxy)-benzyl]-2,5-diaza-bicyclo[2.2.1]hept-2-yl}-2-methoxy-ethanone] the figure was 7.82; with `COCC(=O)N1C[C@H]2C[C@@H]1CN2Cc1ccc(Oc2nc3ccccc3s2)cc1` [Example 21, (R,R)-1-{5-[4-(Benzothiazol-2-yloxy)-benzyl]-2,5-diaza-bicyclo[2.2.1]hept-2-yl}-2-methoxy-ethanone], 7.89.
Consider `NC(=O)N1C[C@H]2C[C@@H]1CN2Cc1ccc(Oc2nc3ccccc3s2)cc1` [Example 34, (R,R)-5-[4-(Benzothiazol-2-yloxy)-benzyl]-2,5-diaza-bicyclo[2.2.1]heptane-2-carboxylic acid amide], for which the negative logarithm of the Ki (pKi) is 8.15.
The value for `O=C(C1CNC1)N1CC2CN(Cc3ccc(Oc4nc5ccccc5s4)cc3)CC2C1` (stereo not drawn) [Example 99, Azetidin-3-yl-{5-[4-(benzothiazol-2-yloxy)-benzyl]-hexahydro-pyrrolo[3,4-c]pyrrol-2-yl}-methanone] was 6.66.
The value for `CS(=O)(=O)N1C[C@@H]2C[C@H]1CN2CCc1cccc(Oc2nc3ccccc3s2)c1` [Example 48, (S,S)-2-{3-[2-(5-Methanesulfonyl-2,5-diaza-bicyclo[2.2.1]hept-2-yl)-ethyl}phenoxy]benzothiazole] was 5.93.
The value for `CS(=O)(=O)N1C[C@H]2C[C@@H]1CN2Cc1ccc(Oc2nc3ccccc3s2)cc1` [Example 46, (R,R)-2-[4-(5-Methanesulfonyl-2,5-diaza-bicyclo[2.2.1]hept-2-ylmethyl)-phenoxy]-benzothiazole] was 7.49.
Take `O=C(c1cnccn1)N1CC2CN(Cc3ccc(Oc4nc5ccccc5s4)cc3)CC2C1` (stereo not drawn) [Example 105, {5-[4-(Benzothiazol-2-yloxy)-benzyl]-hexahydro-pyrrolo[3,4-c]pyrrol-2-yl}-pyrazin-2-yl-methanone]: the pKi was 7.16.
The value for `CC(C)(O)C(=O)N1C[C@@H]2C[C@H]1CN2Cc1ccc(Oc2nc3ccccc3s2)cc1` [Example 12, (S,S)-1-{5-[4-(Benzothiazol-2-yloxy)-benzyl]-2,5-diaza-bicyclo[2.2.1]hept-2-yl}-2-hydroxy-2-methyl-propan-1-one] was 7.51; that for `CC(=O)N[C@@H]1C[C@H]2CC[C@@H](C1)N2CCOc1ccc(Oc2nc3cccc(Cl)c3s2)cc1` [Example 195, meso-exo-N-(8-{2-[4-(7-Chloro-benzothiazol-2-yloxy)-phenoxy]-ethyl}-8-aza-bicyclo[3.2.1]oct-3-yl)-acetamide] was 5.78; that for `NC(=O)N[C@@H]1C[C@H]2CC[C@@H](C1)N2CCc1ccc(Oc2nc3cc(Cl)ccc3s2)cc1` [Example 202, meso-exo-(8-{2-[4-(5-Chloro-benzothiazol-2-yloxy)-phenyl]-ethyl}-8-aza-bicyclo[3.2.1]oct-3-yl)-urea] was 6.90.
On to `Cn1ccc(S(=O)(=O)N2CC3CN(Cc4ccc(Oc5nc6ccccc6s5)cc4)CC3C2)c1` (stereo not drawn) [Example 123, 2-{4-[5-(1-Methyl-1H-pyrrole-3-sulfonyl)-hexahydro-pyrrolo[3,4-c]pyrrol-2-ylmethyl]-phenoxy}-benzothiazole], for which the negative-log Ki (pKi) is 7.01.
With `c1ccc2sc(Oc3ccc(CN4CC5CNCC5C4)cc3)nc2c1` (stereo not drawn) [Example 83, 2-[4-(Hexahydro-pyrrolo[3,4-c]pyrrol-2-ylmethyl)-phenoxy]-benzothiazole hydrochloride] the figure was 7.26.
The value for `CC(C)(C)OC(=O)NCC(=O)N1C[C@H]2C[C@@H]1CN2Cc1ccc(Oc2nc3ccccc3s2)cc1` [Example 28, (R,R)-(2-{5-[4-(Benzothiazol-2-yloxy)-benzyl]-2,5-diaza-bicyclo[2.2.1]hept-2-yl}-2-oxo-ethyl)-carbamic acid tert-butyl ester] was 7.06.
With `NC(=O)N1[C@@H]2CC[C@H]1C[C@@H](NCCOc1ccc(Oc3nc4c(Cl)cccc4s3)cc1)C2` [Example 221, meso-endo-3-{2-[4-(4-Chloro-benzothiazol-2-yloxy)-phenoxy]-ethylamino}-8-aza-bicyclo[3.2.1]octane-8-carboxylic acid amide] the figure was 6.10; with `CS(=O)(=O)N1C[C@H]2C[C@@H]1CN2Cc1ccc(Oc2nc3ccc(Cl)cc3s2)cc1` [Example 236, (R,R)-6-Chloro-2-[4-(5-methanesulfonyl-2,5-diaza-bicyclo[2.2.1]hept-2-ylmethyl)-phenoxy]-benzothiazole], 6.77; with `O=C(c1cccs1)N1C[C@@H]2C[C@H]1CN2Cc1ccc(Oc2nc3ccccc3s2)cc1` [Example 61, (S,S)-{5-[4-(Benzothiazol-2-yloxy)-benzyl]-2,5-diaza-bicyclo[2.2.1]hept-2-yl}-thiophen-2-yl-methanone], 7.57.
As for `CS(=O)(=O)N[C@@H]1C[C@H]2CC[C@@H](C1)N2CCOc1ccc(Oc2nc3cccc(F)c3s2)cc1` [Example 251, meso-exo-N-(8-{2-[4-(7-Fluoro-benzothiazol-2-yloxy)-phenoxy]-ethyl}-8-aza-bicyclo[3.2.1]oct-3-yl)-methanesulfonamide], the negative-log Ki (pKi) was 7.48.
With `NC(=O)N1C[C@@H]2C[C@H]1CN2Cc1ccc(Oc2nc3ccccc3s2)cc1` [Example 32, (S,S)-5-[4-(Benzothiazol-2-yloxy)-benzyl]-2,5-diaza-bicyclo[2.2.1]heptane-2-carboxylic acid amide] the figure was 8.52; with `NC(=O)N1CC2CCC(C1)N2Cc1ccc(Oc2nc3ccccc3s2)cc1F` [Example 76, meso-8-[4-(Benzothiazol-2-yloxy)-2-fluoro-benzyl]-3,8-diaza-bicyclo[3.2.1]octane-3-carboxylic acid amide], 6.71; with `O=C(Nc1ccncc1)N1CC2CN(Cc3ccc(Oc4nc5ccccc5s4)cc3)CC2C1` (stereo not drawn) [Example 132, 5-[4-(Benzothiazol-2-yloxy)-benzyl]-hexahydro-pyrrolo[3,4-c]pyrrole-2-carboxylic acid pyridin-4-yl amide], 7.74.
